Experimental data published in patent US20220249399A1, “COMPOSITION COMPRISING AN ANTI-OXIDANT TO PRESERVE CORNEAL TISSUE” (University of lowa Research Foundation, priority 2019, published 2022).

Columns and labels:
[1] = Stability in water (yellowish discoloration = oxidation to ubiquinone); type: physicochemical; conditions: shaken in water for 24 h
Description: • γ-CD was dissolved in water at different concentrations, and ubiquinol was added to it while stirring (protected from light). • Stirring continues for 2-5 days. Finally, the formed precipitate (complex) was collected and dried. • Yellow discoloration, which indicates the oxidation of ubiquinol following the formation of the yellow oxidized form (ubiquinone), was noticeable at different degrees depending on the stirring time.
In FIG. 11, the image on the right is 5 mg of CoQ10 added to 10 ml H2O and shaken for 24 hours. […] The instability of ubiquinol in water after both free drug or the complex was stirred in water for 24 h explains why the kneading method that involves the minimum amount of water was chosen form preparation.

[2] = tested on: primary cultures of corneal endothelial cells; experiment: Seahorse XFe96 mitochondrial respiration of primary cultures of corneal endothelial cells; type: cell-based, human; conditions: uncomplexed coenzyme Q10 (100 μM) or cyclodextrin alone vs diluent control
Description: (§1) Human corneas were obtained by Iowa Lions Eye Bank (ILEB) from nondiabetic donors 60-75 years old and stored in Optisol GS (Bausch+Lomb, Irvine, Calif.) at 4° C. following procurement in accordance with Eye Bank Association of America and ILEB policies and procedures. Endothelial cells were isolated and cultured in Seahorse XFe96 well plates until they reached confluency. Purity of cell cultures were confirmed with anti-zonula occludens 1 (ZO-1) labeling of cellular tight junctions. Once confluent, cells were treated with different concentrations of cyclodextrin-coenzyme Q10 complex in culture (1 μM, 10 μM, or 100 μM) uncomplexed coenzyme Q10 (100 μM), cyclodextrin alone, or diluent control. Mitochondrial respiration was assayed by measuring oxygen consumption using the Seahorse XFe96 Extracellular Flux Analyzer (Agilent Technologies, Santa Clara, Calif.) over 120 minutes (9-minute intervals). Wells were labeled with a nuclear counterstain (DAPI) and nuclei were counted in each well to normalize respirometry data.
Seahorse respiration assays were conducted with MitoQ with doses ranging from 0 to 10 μM. All experiments were performed on corneal endothelial cells in culture and analyzed using the XFe96 Extracellular Flux Analyzer.
as §1, with “MitoQ with doses ranging from 0 to” for “different concentrations of cyclodextrin-coenzyme Q10 complex in culture (1 μM,”, “μM.” for “μM, or 100 μM) uncomplexed coenzyme Q10 (100 μM), cyclodextrin alone, or diluent control.”

[3] = tested on: human donor corneal endothelial cells; experiment: Mitochondrial respiration assay (Seahorse XFe24 extracellular flux analyzer) of donor corneal endothelium after storage in supplemented Optisol GS; type: cell-based; conditions: 1 μM coQ10, tissues in storage
[4] = Dispersibility and solubility in water, solvents and media; type: physicochemical; conditions: for solubility in cell culture: cell culture environments (primary cultures)
Description: 50 mg of kneaded complex added to 10 ml H2O and shaken for 2 hours.
In FIG. 10, the image on the right is 5 mg of CoQ10 added to 10 ml H2O and shaken for 2 hours.
Paired corneas were supplemented with 10 μM ubiquinol (Fuller et al., 2006) (USP analytical standard, Sigma Aldrich, St. Louis, Mo.), 100 μM palmitate-BSA (Pfleger et al., 2015) (Agilent, Santa Clara, Calif.), or diluent only for 5 days, such that one cornea from a donor received treatment while its mate from the same donor was a control. Concentrations were chosen based on previously published studies (Fuller et al., 2006; Pfleger et al., 2015). Diluents were chosen based on supplement solubility. Although several diluents were tried for ubiquinol (water, Optisol-GS, DMSO and ethanol), ethanol was chosen based on its ability to solubilize ubiquinol most successfully. No complexing agents were used to solubilize ubiquinol. Following the 5 days of storage with supplementation, tissues were processed for metabolic and cell viability assays as described below.
Due to its long hydrocarbon side chain, ubiquinol is difficult to solubilize in biocompatible solvents. In this series, several attempts were made to bring this lipid-soluble molecule into aqueous solution. First, ubiquinol was attempted to be dissolved using polar […] known to be biocompatible with CECs (Optisol-GS, water) based on the goal of achieving a high bioavailability for clinical applications. […] Next two organic polar […] solvents, DMSO and absolute ethanol, were tested. DMSO commonly is used as a solvent in cell biology and biochemistry, and both DMSO and ethanol can solubilize hydrocarbons. […] In addition to its lipophilicity, native ubiquinol is also unstable. Although not encountered in this series ubiquinol oxidizes in the presence of oxygen and light and turns yellow, indicating the formation of its oxidized form, ubiquinone. It is therefore necessary to improve the solubility and handleability of ubiquinol for future validations of its effects on oxidative stress related pathways.

With ubiquinol the “stability in water (discoloration)” value [1] was “yellowish discoloration was noticeable”, the “mitochondrial spare respiratory capacity” value [2] was “reduces mitochondrial spare respiratory capacity” and the proton leak [3] was “no increase in proton leak”. The “solubility in Optisol-GS storage media after dissolving in ethanol” value [4] was “appeared to remain in solution”, the dispersibility in water ([4]; 50 mg kneaded complex or 5 mg CoQ10 in 10 ml H2O, shaken for 2 hours) was “prefers to accumulate at the air-water interface or to adhere to the glass container” and the “solubility in cell culture” value [4] was “precipitated out of solution”. For the same substance, the “solubility in cell culture” value ([4]; listed as coQ10) was “not soluble”, the “solubility in DMSO” value ([4]; despite heating the solution) was “precipitated in DMSO” and the “solubility in Optisol-GS, water” value ([4]; even after heating) was “precipitated out of these solutions”. For the same substance, the “solubility in absolute ethanol” value ([4]; heated to 37° C., precipitates if not poured immediately into storage media) was “dissolved”.
